Measured values taken from patent US20060122153A1, “Antineoplastic ether lipid compounds with modifications at the sn-2 carbon” (priority 2003, published 2006).

Legend:
KM12 = experiment: NCI growth inhibition screen, colon panel; assay type: cell-based, human; set-up: key: = means equivalent activity; + means that it appears to be significantly better (i.e., by ˜2x); < means it appears to be less active than ET18OCH3 (˜2x); a combination like =/+ or </+ means that activity is dependent upon the isomer; a combination like =/+ or </+ means that activity is dependent upon the isomer; conditions: from GI50s
Experimental: (§1) Candidates deemed suitable for in vivo testing were then synthesized in large scale quantities and some of this material was sent to the NCI's Developmental Therapeutics Program for a battery of growth inhibitory studies against various human tumor cell lines (60 cell lines, 9 different panels). The remainder of the material was used to assess in vivo efficacy using murine tumor models. Additionally, studies were conducted on the lead candidates to discern mechanism of action with particular emphasis on these agents apoptotic ability as measured by caspase 3 activity. The details (materials and methods) for these various assays are described further in the following discussion.
(§2) Ten compounds were also sent to NCI's Drug Discovery Program for screening against numerous human tumor cell lines (9 panels total: renal ovarian, colon, CNS, non-small cell lung, leukemia, breast, melanoma, and prostate). The data are shown in FIGS. 2a-i which also include data regarding D- and L-ET-18-OCH3 (listed as L-EL and D-EL in the figures). Upon examining the data, one is struck by how 1R and 1a′S standout in comparison to the other compounds, especially for the renal, ovarian, colon, and CNS panels.

HT29 = experiment: NCI growth inhibition screen, colon panel; assay type: cell-based, human; set-up: key: = means equivalent activity; + means that it appears to be significantly better (i.e., by ˜2x); < means it appears to be less active than ET18OCH3 (˜2x); a combination like =/+ or </+ means that activity is dependent upon the isomer; a combination like =/+ or </+ means that activity is dependent upon the isomer; conditions: from GI50s
Experimental: as §1, §2

SW-620 = experiment: NCI growth inhibition screen, colon panel; assay type: cell-based, human; set-up: key: = means equivalent activity; + means that it appears to be significantly better (i.e., by ˜2x); < means it appears to be less active than ET18OCH3 (˜2x); a combination like =/+ or </+ means that activity is dependent upon the isomer; a combination like =/+ or </+ means that activity is dependent upon the isomer; conditions: SW-620, Colon; from GI50s
Experimental: as §1, §2

HCT-15 = experiment: NCI growth inhibition screen, colon panel; assay type: cell-based, human; set-up: key: = means equivalent activity; + means that it appears to be significantly better (i.e., by ˜2x); < means it appears to be less active than ET18OCH3 (˜2x); a combination like =/+ or </+ means that activity is dependent upon the isomer; a combination like =/+ or </+ means that activity is dependent upon the isomer; conditions: HCT-15, Colon; from GI50s
Experimental: as §1, §2

HCT-116 = experiment: NCI growth inhibition screen, colon panel; assay type: cell-based, human; set-up: key: = means equivalent activity; + means that it appears to be significantly better (i.e., by ˜2x); < means it appears to be less active than ET18OCH3 (˜2x); a combination like =/+ or </+ means that activity is dependent upon the isomer; a combination like =/+ or </+ means that activity is dependent upon the isomer; conditions: HCT-116, Colon; from GI50s
Experimental: as §1, §2

ACHIN = experiment: NCI growth inhibition screen, renal panel; assay type: cell-based, human; set-up: key: = means equivalent activity; + means that it appears to be significantly better (i.e., by ˜2x); < means it appears to be less active than ET18OCH3 (˜2x); a combination like =/+ or </+ means that activity is dependent upon the isomer; a combination like =/+ or </+ means that activity is dependent upon the isomer; conditions: from GI50s
Experimental: as §1, §2

RXF 393 = experiment: NCI growth inhibition screen, renal panel; assay type: cell-based, human; set-up: key: = means equivalent activity; + means that it appears to be significantly better (i.e., by ˜2x); < means it appears to be less active than ET18OCH3 (˜2x); a combination like =/+ or </+ means that activity is dependent upon the isomer; a combination like =/+ or </+ means that activity is dependent upon the isomer; conditions: RXF 393, Renal; from GI50s
Experimental: as §1, §2

A498 = experiment: NCI growth inhibition screen, renal panel; assay type: cell-based, human; set-up: key: = means equivalent activity; + means that it appears to be significantly better (i.e., by ˜2x); < means it appears to be less active than ET18OCH3 (˜2x); a combination like =/+ or </+ means that activity is dependent upon the isomer; a combination like =/+ or </+ means that activity is dependent upon the isomer; conditions: from GI50s
Experimental: as §1, §2

786-0 = experiment: NCI growth inhibition screen, renal panel; assay type: cell-based, human; set-up: key: = means equivalent activity; + means that it appears to be significantly better (i.e., by ˜2x); < means it appears to be less active than ET18OCH3 (˜2x); a combination like =/+ or </+ means that activity is dependent upon the isomer; a combination like =/+ or </+ means that activity is dependent upon the isomer; conditions: 786-0, Renal; from GI50s
Experimental: as §1, §2

whole human blood = experiment: Hemolysis assay with whole human blood; conditions: whole human blood; for H10: concentration producing 10% hemolysis; for H50: concentration producing 50% hemolysis
Experimental: Venous blood was collected in 10 mL Vacutainer tubes containing EDTA using a 21G needle or larger.
Stock solutions of 20 mM test sample in phosphate buffered saline (PBS) were prepared as follows:
Then 270 uL of whole blood was aliquotted in duplicate mini test tubes using positive displacement pipet. Next, 30 uL of each working stock solution, in duplicate, was added to the whole blood. Next, 30 uL of PBS was added for background control. The samples were capped or sealed with Parafilm and gently mixed. The blood was incubated at 37° C. in gentle rotating water bath for 30 minutes. Final concentration of test sample was 10% of working stock solution.
Total hemolysis samples of 1,% and 10% whole blood samples in deionized water were prepared as follows:
The samples were freeze thawed 3× in liquid nitrogen then wafer bath. The samples were then centrifuged 10 minutes at 1500 RPM. Next, 100 uL of supernatant was transferred to a cuvette and 1 mL deionized water was added. The absorbance was read at 550 nm vs. water blank.
H10 and H50 were calculated by graphing Percent Total Hemolysis vs. Test Sample Concentration. The Percent Total Henolysis=(average o.d of test sample)/(average o.d. of total hemolysis sample)×100

[1] = system: human tumor cell lines (9 panels); experiment: NCI growth inhibition screen, all panels; assay type: cell-based; conditions: for activity as compared to ET-18-OCH3 (in words): all NCI panels; for activity compared to ET-18-OCH3 isomers (in words): colon and CNS panels of cell lines
Experimental: as §1, §2

Compound	Performance as compared to ET-18-O—CH3 (KM12)	Performance as compared to ET-18-O—CH3 (HT29)	Performance as compared to ET-18-O—CH3 (SW-620)	Performance as compared to ET-18-O—CH3 (HCT-15)	Performance as compared to ET-18-O—CH3 (HCT-116)	Performance as compared to ET-18-O—CH3 (ACHIN)	Performance as compared to ET-18-O—CH3 (RXF 393)	Performance as compared to ET-18-O—CH3 (A498)	Performance as compared to ET-18-O—CH3 (786-0)	H10 (whole human blood) [µM]	H50 (whole human blood) [µM]	activity as compared to ET-18-OCH3 (in words) [1]	activity compared to ET-18-OCH3 isomers (in words) [1]
CCCCCCCCCCCCCCCCCCOC[C@@H](COP(=O)([O-])OCC[N+](C)(C)C)OS(C)(=O)=O [1a′S]	0	0	1024	512	256	0	32	0	0	800	>2000	equal or greater in activity	more active than even the ET-18-OCH3 isomers
CCCCCCCCCCCCCCCCCCOCC(COP(=O)([O-])OCC[N+](C)(C)C)OS(C)(=O)=O (centres unmarked) [Compound 1aR]	=	=	+	=	+	=	=	=	=	1000	>2000	equal or greater in activity	more active than even the ET-18-OCH3 isomers
